In ChEMBL document CHEMBL4765295, “Synthesis, pharmacological profile and 2D-QSAR studies of curcumin-amino acid conjugates as potential drug candidates” (Eur J Med Chem, 2020):
Several values for one entry are separate records, joined by “and”; a condition that tells them apart may be missing. Identical values can stand only once.

Experiments:
Rattus norvegicus [1] = test: Anti-inflammatory activity in Wistar rat assessed as inhibition of carrageenan-induced paw edema at 10 mg/kg, ip pretreated for 1 hr followed by carrageenan challenge and measured after 2 hr relative to control (reference value: 0.00 +/-0.03 %); format: functional; conditions: time 3 hrs
Peritoneal macrophage [2] = test: Antiinflammatory activity in […] mouse Peritoneal macrophages assessed as inhibition of LPS-induced NO production at 10 uM preincubated for 1 hr followed by LPS stimulation measured after 24 hrs by Griess method relative to control (reference value: 0.0 %); format: functional; parameters: scale not given: the % may be the effect or the level left; conditions: time 25 hrs
Rattus norvegicus [3] = test: Antiinflammatory activity in Wistar rat model of carrageenan-induced paw edema assessed as reduction in thickness of paw edema at 10 mg/kg, ip pretreated for 1 hr followed by carrageenan challenge and measured after 4 hrs (reference value: 1.40 +/-0.10 mm); format: functional; conditions: time 5 hrs
Rattus norvegicus [4] = test: Antiinflammatory activity in Wistar rat model of carrageenan-induced paw edema assessed as reduction in thickness of paw edema at 10 mg/kg, ip pretreated for 1 hr followed by carrageenan challenge and measured after 24 hrs (reference value: 0.83 +/-0.08 mm); format: functional; conditions: time 25 hrs
Rattus norvegicus [5] = test: Antiinflammatory activity in Wistar rat model of carrageenan-induced paw edema assessed as reduction in thickness of paw edema at 10 mg/kg, ip pretreated for 1 hr followed by carrageenan challenge and measured after 3 hrs (reference value: 1.79 +/-0.07 mm); format: functional; conditions: time 4 hrs
Rattus norvegicus [6] = test: Anti-inflammatory activity in Wistar rat assessed as inhibition of carrageenan-induced paw edema at 10 mg/kg, ip pretreated for 1 hr followed by carrageenan challenge and measured after 3 hr relative to control (reference value: 0.00 +/-0.1 %); format: functional; conditions: time 4 hrs
Rattus norvegicus [7] = test: Anti-inflammatory activity in Wistar rat assessed as inhibition of carrageenan-induced paw edema at 10 mg/kg, ip pretreated for 1 hr followed by carrageenan challenge and measured after 24 hr relative to control (reference value: 0.00 +/-0.3 %); format: functional; conditions: time 25 hrs
Rattus norvegicus [8] = test: Anti-inflammatory activity in Wistar rat assessed as inhibition of carrageenan-induced paw edema at 10 mg/kg, ip pretreated for 1 hr followed by carrageenan challenge and measured after 1 hr relative to control (reference value: 0.00 +/-0.02 %); format: functional; conditions: time 2 hrs
Candida albicans = test: Antifungal activity against Candida albicans incubated for 18 to 24 hrs by CLSI method; format: functional; conditions: time 18-24 hrs
Rattus norvegicus [9] = test: Anti-inflammatory activity in Wistar rat assessed as inhibition of carrageenan-induced paw edema at 10 mg/kg, ip pretreated for 1 hr followed by carrageenan challenge and measured after 4 hr relative to indomethacin; format: functional; conditions: time 5 hrs
Peritoneal macrophage [10] = test: Antiinflammatory activity in […] mouse Peritoneal macrophages assessed as reduction in LPS-induced NO production by measuring reduction in stimulation index at 10 uM preincubated for 1 hr followed by LPS stimulation measured after 24 hrs by Griess method (reference value: 27.31 +/- 2.56 uM); format: functional; conditions: time 25 hrs
Rattus norvegicus [11] = test: Antiinflammatory activity in Wistar rat model of carrageenan-induced paw edema assessed as reduction in thickness of paw edema at 10 mg/kg, ip pretreated for 1 hr followed by carrageenan challenge and measured after 1 hr (reference value: 2.41 +/-0.05 mm); format: functional; conditions: time 1 hr after carrageenan
Staphylococcus aureus = test: Antibacterial activity against Staphylococcus aureus ATCC 25923 incubated for 18 hrs by agar dilution method; format: functional
Streptococcus pyogenes = test: Antibacterial activity against Streptococcus pyogenes ATCC 19615 incubated for 18 hrs by agar dilution method; format: functional
Splenocyte [12] = test: Immunomodulatory activity in Swiss albino mouse splenocytes assessed as cell viability at 10 uM by measuring stimulation index incubated for 72 hrs in presence of mitogenic stimulus phytohaemagglutinin by MTT assay (reference value: 1.00 +/- 0.24); format: functional
Pseudomonas aeruginosa = test: Antibacterial activity against Pseudomonas aeruginosa ATCC 27853 incubated for 18 hrs by agar dilution assay; format: functional
Rattus norvegicus [13] = test: Anti-inflammatory activity in Wistar rat assessed as inhibition of carrageenan-induced paw edema at 10 mg/kg, ip pretreated for 1 hr followed by carrageenan challenge and measured after 4 hr relative to control (reference value: 0.00 +/-0.4 %); format: functional; conditions: time 5 hrs
Salmonella typhimurium = test: Antibacterial activity against Salmonella typhimurium ATCC 19430 incubated for 18 hrs by agar dilution assay; format: functional, Salmonella enterica subsp. enterica serovar Typhimurium; conditions: Salmonella enterica
Splenocyte [14] = test: Immunomodulatory activity in Swiss albino mouse splenocytes assessed as cell viability at 10 uM by measuring inhibition of stimulation index incubated for 72 hrs in presence of mitogenic stimulus phytohaemagglutinin by MTT assay relative to indomethacin; format: functional; conditions: read-out: Activity
Rattus norvegicus [15] = test: Antiinflammatory activity in Wistar rat model of carrageenan-induced paw edema assessed as reduction in thickness of paw edema at 10 mg/kg, ip pretreated for 1 hr followed by carrageenan challenge and measured after 2 hrs (reference value: 2.06 +/-0.09 mm); format: functional; conditions: time 3 hrs

SMILES | MIC (Candida albicans) | MIC (Staphylococcus aureus) | MIC (Streptococcus pyogenes) | MIC (Pseudomonas aeruginosa) | MIC (Salmonella typhimurium) | inhibition in vivo at 10 mg/kg (Rattus norvegicus [1]) [%] | Activity (Peritoneal macrophage [2]) [%] | Activity (Rattus norvegicus [3]) [mm] | Activity (Rattus norvegicus [4]) [mm] | Activity (Rattus norvegicus [5]) [mm] | inhibition in vivo at 10 mg/kg (Rattus norvegicus [6]) [%] | inhibition in vivo at 10 mg/kg (Rattus norvegicus [7]) [%] | inhibition in vivo at 10 mg/kg (Rattus norvegicus [8]) [%] | inhibition in vivo at 10 mg/kg (Rattus norvegicus [9]) [%] | Activity (Peritoneal macrophage [10]) [µM] | Activity (Rattus norvegicus [11]) [mm] | Activity_index (Splenocyte [12]) | inhibition in vivo at 10 mg/kg (Rattus norvegicus [13]) [%] | viability at 10 µM (Splenocyte [14]) [%] | Activity (Rattus norvegicus [15]) [mm]
COc1cc(/C=C/C(=O)/C=C(O)/C=C/c2ccc(OC(=O)[C@H](C)NC(=O)OC(C)(C)C)c(OC)c2)ccc1OC(=O)[C@H](C)NC(=O)OC(C)(C)C | 1 µg/mL and 1.41 µM | 0.125 µg/mL and 0.176 µM | 0.25 µg/mL and 0.352 µM | 1 µg/mL and 1.41 µM | 0.125 µg/mL and 0.176 µM | 11 | 22.02 | 1.04 | 0.79 | 1.44 | 20 | 5 | 6 | 32 | 21.3 | 2.26 | 2.71 | 28 | 44.6 | 1.84
COc1cc(/C=C/C(=O)/C=C(O)/C=C/c2ccc(OC(=O)CCNC(=O)OC(C)(C)C)c(OC)c2)ccc1OC(=O)CCNC(=O)OC(C)(C)C | 0.5 µg/mL and 0.703 µM | 0.25 µg/mL and 0.352 µM | 0.25 µg/mL and 0.352 µM | 0.25 µg/mL and 0.352 µM | 0.5 µg/mL and 0.703 µM | 33 | 32.81 | 0.55 | 0.6 | 0.99 | 45 | 28 | 31 | 70 | 18.35 | 1.66 | 1.7 | 61 | 71.1 | 1.38
COc1cc(/C=C/C(=O)/C=C(O)/C=C/c2ccc(OC(=O)CNC(=O)OCc3ccccc3)c(OC)c2)ccc1OC(=O)CNC(=O)OCc1ccccc1 | 0.5 µg/mL and 0.666 µM | 0.125 µg/mL and 0.166 µM | 0.125 µg/mL and 0.166 µM | 1 µg/mL and 1.33 µM | 0.5 µg/mL and 0.666 µM | 32 | 10.11 | 0.92 | 0.83 | 1.13 | 37 | 0 | 64 | 39 | 24.55 | 0.87 | 2.64 | 34 | 45.8 | 1.41
COc1cc(/C=C/C(=O)/C=C(O)/C=C/c2ccc(OC(=O)[C@H](Cc3ccccc3)NC(=O)OCc3ccccc3)c(OC)c2)ccc1OC(=O)[C@H](Cc1ccccc1)NC(=O)OCc1ccccc1 | 2 µg/mL and 2.15 µM | 0.125 µg/mL and 0.134 µM | 0.125 µg/mL and 0.134 µM | 0.25 µg/mL and 0.269 µM | 0.125 µg/mL and 0.134 µM | 24 | 3.6 | 1.38 | 0.82 | 1.63 | 9 | 1 | 59 | 6 | 26.33 | 1 | 2.91 | 5 | 41.5 | 1.56

Now from value to molecule, other results behind:

MIC (Candida albicans) | MIC (Staphylococcus aureus) | MIC (Streptococcus pyogenes) | MIC (Pseudomonas aeruginosa) | MIC (Salmonella typhimurium) | SMILES | inhibition in vivo at 10 mg/kg (Rattus norvegicus [1]) [%] | Activity (Peritoneal macrophage [2]) [%] | Activity (Rattus norvegicus [3]) [mm] | Activity (Rattus norvegicus [4]) [mm] | Activity (Rattus norvegicus [5]) [mm] | inhibition in vivo at 10 mg/kg (Rattus norvegicus [6]) [%] | inhibition in vivo at 10 mg/kg (Rattus norvegicus [7]) [%] | inhibition in vivo at 10 mg/kg (Rattus norvegicus [8]) [%] | inhibition in vivo at 10 mg/kg (Rattus norvegicus [9]) [%] | Activity (Peritoneal macrophage [10]) [µM] | Activity (Rattus norvegicus [11]) [mm] | Activity_index (Splenocyte [12]) | inhibition in vivo at 10 mg/kg (Rattus norvegicus [13]) [%] | viability at 10 µM (Splenocyte [14]) [%] | Activity (Rattus norvegicus [15]) [mm]
2 µg/mL and 2.57 µM | 0.25 µg/mL and 0.321 µM | 0.125 µg/mL and 0.161 µM | 2 µg/mL and 2.57 µM | 0.5 µg/mL and 0.642 µM | COc1cc(/C=C/C(=O)/C=C(O)/C=C/c2ccc(OC(=O)[C@H](C)NC(=O)OCc3ccccc3)c(OC)c2)ccc1OC(=O)[C@H](C)NC(=O)OCc1ccccc1 | 23 | 8.86 | 1.23 | 0.83 | 1.4 | 22 | 0 | 56 | 14 | 24.89 | 1.05 | 2.7 | 12 | 44.9 | 1.59
1 µg/mL and 1.05 µM | 0.5 µg/mL and 0.524 µM | 0.5 µg/mL and 0.524 µM | 0.25 µg/mL and 0.262 µM | 0.25 µg/mL and 0.262 µM | COc1cc(/C=C/C(=O)/C=C(O)/C=C/c2ccc(OC(=O)[C@H](C)NC(=O)OCC3c4ccccc4-c4ccccc43)c(OC)c2)ccc1OC(=O)[C@H](C)NC(=O)OCC1c2ccccc2-c2ccccc21 | 23 | 20.22 | 0.62 | 0.41 | 1.02 | 43 | 51 | 12 | 64 | 21.79 | 2.12 | 2.22 | 56 | 54.4 | 1.59
